Earlier results as cited in US20130251696A1, “Antioxidant Composition for Reducing Oxidative Stress Ascribable to the Treatment with Hormonal Contraceptive Drugs” (COR.CON. INTERNATIONAL S.R.L., priority 2010, published 2013).

Conditions: principal organs (heart, brain, liver, uterus etc.)

tissue levels as % of blood levels: 8-10%
SMILES: O=C(O[C@@H]1Cc2c(O)cc(O)cc2O[C@@H]1c1cc(O)c(O)c(O)c1)c1cc(O)c(O)c(O)c1 [EGCG, epigallocatechin gallate]
